Data reported in US10155727B2, “Pyrazoles” (Janssen Pharmaceuticals, Inc., priority 2014, dated 2018).
Like-named read-outs stand apart in the source and are kept apart here.

Tests used:
rat NR1/NR2B receptor = rat NR1/NR2B receptor (Rattus norvegicus (Rat), UniProt P35439+Q00960); test: NR2B binding assay: inhibition of specific [3H]-Ifenprodil binding to the rat NR1/NR2B receptor; details: for inhibition at 1 µM: read-out: % INH @ 1 μM; for inhibition at 10 µM: read-out: % INH @ 10 μM
Protocol: Biological Assays Inhibition of Specific Binding to the Rat NR1/NR2B Receptor
Male Wistar rats (180 to 200 g) were killed by suffocation in a CO2 chamber for two minutes. Whole brains without cerebellum were removed and dissected on ice, placed into closed vials and stored at −70° C.
Membrane fractions were prepared and tested using standard techniques. At the time of the assay, 1 g of the brains was placed into 25 ml of 50 mM Tris/10 mM EDTA buffer, pH 7.1, (25 vol. per g of original tissue) and homogenized for 30 sec at 20000 rpm with an Ultraturrax T25 (Jahnke & Kunkel, IKA-Labortechnik, Staufen, Germany).
The supernatant was discarded and the pellet was homogenized on ice for 30 sec at 20000 rpm with an Ultraturrax and again centrifuged at 48000 g for 30 minutes at 4° C. The resultant pellet was resuspended in 25 ml of 50 mM Tris/10 mM EDTA buffer, homogenized for 30 sec with an Ultraturrax, aliquoted, frozen at −70° C. and stored until use.
After thawing on the day of the assay, a 5 ml membrane aliquot was centrifuged at 48000 g for 30 min at 4° C. The pellet was resuspended in 5 ml of 5 mM Tris/1 mM EDTA buffer, pH 7.4, homogenized for 30 sec at 20000 rpm with an Ultraturrax and centrifuged at 48000 g for 30 min at 4° C. This was repeated twice. The final pellet was homogenized in 5 ml of 5 mM Tris/1 mM EDTA buffer at 4° C. with an Ultraturrax and used for the Ifenprodil-binding assay as described in the following.
Nonspecific binding was estimated in the presence of […] CP101.606. The samples were incubated for 60 min. at 4° C.
The incubation was terminated by filtration of the membrane preparations using Filtermat B (Pharmacia, Uppsala Sweden) and a Micro Cell Harvester (Skatron, Lier, Norway). The Filtermat B had been presoaked with 1% polyethylene imine and carefully washed with 50 mM Tris/HCl-buffer pH 7.7 after the filtration to separate free and bound radioactivity.
The optimal amount of membrane preparation in the assay was determined and optimized for each membrane preparation separately before the test.
For pipetting of the incubation mixture the robot Biomek2000 (Fa. Beckman) was used.
For determination of IC50 values the Hill-plot, 2-parameter-model was used.

hERG receptor = hERG receptor (Homo sapiens (Human), UniProt Q12809); test: HERGBD: inhibition of specific [3H]-Dofetilide binding to the hERG receptor
hERG receptor, sequence (Q12809 whole entry): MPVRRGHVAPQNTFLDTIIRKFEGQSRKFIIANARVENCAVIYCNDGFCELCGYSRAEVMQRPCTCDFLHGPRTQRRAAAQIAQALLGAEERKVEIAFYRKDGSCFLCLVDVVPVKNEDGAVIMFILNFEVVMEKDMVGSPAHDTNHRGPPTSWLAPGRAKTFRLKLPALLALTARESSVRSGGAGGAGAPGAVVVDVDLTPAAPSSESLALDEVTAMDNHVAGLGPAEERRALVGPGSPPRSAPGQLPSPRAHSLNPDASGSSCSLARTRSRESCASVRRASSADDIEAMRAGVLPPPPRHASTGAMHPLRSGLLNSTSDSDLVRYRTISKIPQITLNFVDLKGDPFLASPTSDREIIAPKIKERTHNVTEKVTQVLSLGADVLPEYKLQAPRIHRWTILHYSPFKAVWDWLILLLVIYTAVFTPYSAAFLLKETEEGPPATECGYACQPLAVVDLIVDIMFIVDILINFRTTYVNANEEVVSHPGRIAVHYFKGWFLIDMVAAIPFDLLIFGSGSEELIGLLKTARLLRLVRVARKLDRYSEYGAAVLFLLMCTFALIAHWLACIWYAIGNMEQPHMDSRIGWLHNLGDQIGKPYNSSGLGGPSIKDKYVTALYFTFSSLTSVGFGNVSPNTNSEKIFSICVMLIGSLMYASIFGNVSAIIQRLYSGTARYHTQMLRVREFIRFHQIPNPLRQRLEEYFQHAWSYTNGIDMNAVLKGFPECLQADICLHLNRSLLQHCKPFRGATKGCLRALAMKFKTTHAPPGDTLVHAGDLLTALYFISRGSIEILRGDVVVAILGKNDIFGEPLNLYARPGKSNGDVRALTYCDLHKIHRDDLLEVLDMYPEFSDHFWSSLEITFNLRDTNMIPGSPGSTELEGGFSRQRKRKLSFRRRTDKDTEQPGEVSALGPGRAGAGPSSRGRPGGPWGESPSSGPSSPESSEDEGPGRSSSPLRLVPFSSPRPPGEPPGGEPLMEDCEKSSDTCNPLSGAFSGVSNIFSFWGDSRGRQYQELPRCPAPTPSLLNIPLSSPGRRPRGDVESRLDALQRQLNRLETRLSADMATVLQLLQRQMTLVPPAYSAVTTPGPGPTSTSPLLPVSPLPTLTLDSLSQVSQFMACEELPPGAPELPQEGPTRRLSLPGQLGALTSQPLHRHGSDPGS
Protocol: Inhibition of Specific Binding to the hERG—Receptor (HERGBD)
A HEK cell line with stable transfected human ERG receptor was used for the assay. The cells were grown adherently and maintained in DULBECCOS' MEM medium with 10% FBS, 1% non-essential amino acids, 1% Penicillin/Streptomycin and 400 μg/ml G418 (Calbiochem).
For binding assays and membrane preparations the cell culture medium was removed, cells were washed with PBS. Crude membranes for radioligand binding experiments were prepared by scraping the cells off the dishes in ice cold 20 mM HEPES/0.1 mM KCl/pH 7.2. The cell suspension was homogenized on ice (Ultra turrax, 3×20 sec.) and the homogenate was spun for 10 min (1° C., 1000 g, OPTIMA, SW28, 2800 U/min). The supernatant was than centrifuged for 40 min at 100000 g (1° C., OPTIMA, SW28, 23000 U/min). The membrane pellet was re-suspended in 20 mM HEPES/0.1 mM KCl pH 7.2, frozen and stored at −80° C.
After thawing on the day of the assay, the membrane suspension was diluted further with 20 mM HEPES/0.1 mM KCl/pH 7.2.
The incubation mixture of 200 μl contained 1.5 nmol/l 3H-Dofetilide, optimized amount of membrane preparation, 20 mM HEPES/0.1 mM KCl/(pH 7.2) and inhibitor in 1% DMSO. Nonspecific binding was estimated in the presence of […] Dofetilide. The samples were incubated for 90 min. at RT.
Binding was terminated by filtration of the incubated membrane preparations using Filtermat B (Pharmacia, Uppsala Sweden) and a Micro Cell Harvester (Skatron, Lier, Norway). The Filtermat B had been presoaked with 1% polyethylen imine and carefully washed with 0.05 M Tris/HCl-buffer pH=7.7 after the filtration to separate free and bound radioactivity. The filters were counted in a scintillation counter (Betaplate 1205, Berthold, Wildbad, Germany) in order to determine the specific binding of [^3H]-Dofetilide.
The optimal amount of membrane preparation in the assay was determined and optimized for each membrane preparation separately in front of using the membranes in compound testing.
For pipetting of the incubation mixture we routinely use the robot Biomek2000 (Fa. Beckman).

[1] = 1 μM test compound, [3H]-Ifenprodil binding, rat brain membranes
[2] = [3H]-Dofetilide binding, membranes of HEK cells with human ERG receptor, read-out: IC50
[3] = [3H]-Ifenprodil binding, rat brain membranes

rat NR1/NR2B receptor, sequence (Q00960 27-1482, other chains not shown): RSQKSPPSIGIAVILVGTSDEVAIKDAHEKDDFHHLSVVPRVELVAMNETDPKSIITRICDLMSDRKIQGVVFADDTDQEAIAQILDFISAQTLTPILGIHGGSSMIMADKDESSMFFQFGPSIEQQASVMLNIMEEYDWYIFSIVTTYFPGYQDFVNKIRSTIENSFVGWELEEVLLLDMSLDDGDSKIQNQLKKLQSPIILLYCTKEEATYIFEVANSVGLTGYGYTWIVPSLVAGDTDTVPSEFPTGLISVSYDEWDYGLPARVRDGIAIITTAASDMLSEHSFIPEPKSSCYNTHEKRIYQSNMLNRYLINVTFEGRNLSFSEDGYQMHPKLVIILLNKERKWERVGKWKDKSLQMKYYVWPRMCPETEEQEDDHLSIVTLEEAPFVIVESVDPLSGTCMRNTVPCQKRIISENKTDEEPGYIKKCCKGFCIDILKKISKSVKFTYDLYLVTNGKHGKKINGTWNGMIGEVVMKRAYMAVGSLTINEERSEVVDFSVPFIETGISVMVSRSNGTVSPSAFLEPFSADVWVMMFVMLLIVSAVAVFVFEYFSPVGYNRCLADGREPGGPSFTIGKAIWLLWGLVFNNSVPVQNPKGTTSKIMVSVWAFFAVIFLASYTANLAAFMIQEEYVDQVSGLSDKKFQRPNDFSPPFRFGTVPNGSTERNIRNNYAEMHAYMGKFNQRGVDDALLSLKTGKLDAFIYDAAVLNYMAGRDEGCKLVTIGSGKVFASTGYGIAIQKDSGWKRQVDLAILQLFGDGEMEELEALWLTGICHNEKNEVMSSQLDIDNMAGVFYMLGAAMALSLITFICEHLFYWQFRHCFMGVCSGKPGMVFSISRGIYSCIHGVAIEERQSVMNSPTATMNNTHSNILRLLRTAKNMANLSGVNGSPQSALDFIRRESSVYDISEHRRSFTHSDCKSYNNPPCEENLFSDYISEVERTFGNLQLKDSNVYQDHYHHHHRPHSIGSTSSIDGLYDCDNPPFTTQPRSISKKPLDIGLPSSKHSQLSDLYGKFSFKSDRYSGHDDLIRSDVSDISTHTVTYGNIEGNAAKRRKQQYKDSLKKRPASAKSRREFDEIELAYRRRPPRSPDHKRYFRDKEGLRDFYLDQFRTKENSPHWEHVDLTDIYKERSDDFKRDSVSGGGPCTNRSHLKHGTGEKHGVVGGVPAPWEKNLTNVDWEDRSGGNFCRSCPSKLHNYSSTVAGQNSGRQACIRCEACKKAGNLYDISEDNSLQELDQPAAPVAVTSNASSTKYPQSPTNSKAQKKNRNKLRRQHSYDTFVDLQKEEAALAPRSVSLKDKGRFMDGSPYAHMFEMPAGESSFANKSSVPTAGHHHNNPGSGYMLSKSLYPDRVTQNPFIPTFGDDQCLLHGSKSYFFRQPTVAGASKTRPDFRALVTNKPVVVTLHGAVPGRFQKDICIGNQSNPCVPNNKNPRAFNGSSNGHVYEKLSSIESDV

Structure (SMILES)	IC50 (rat NR1/NR2B receptor; [3])	IC50 (hERG receptor)	further results
Cn1ccc(Cn2cc(-c3ccccn3)cn2)n1 [Example 104, 2-(1-((1-methyl-1H-pyrazol-3-yl)methyl)-1H-pyrazol-4-yl)pyridine Succinate]			inhibition at 1 µM (rat NR1/NR2B receptor; [1]): 20.9%; inhibition at 10 µM (rat NR1/NR2B receptor): -0.6%; IC50 (hERG receptor; [2]): > 100 µM
FS(F)(F)(F)(F)c1cccc(-c2cnn(Cc3cc[nH]n3)c2)c1 [Example 72, 1-((1H-pyrazol-3-yl)methyl)-4-(3-(pentafluoro-16-sulfanyl)phenyl)-1H-pyrazole Succinate]	0.0951 µM	44.7 µM	
Cn1cc(Cn2cc(-c3ccc(Cl)cc3)cn2)cn1 [Example 78, 4-(4-Chlorophenyl)-1-[(1-methylpyrazol-4-yl)methyl]pyrazole]	8.28 µM	> 100 µM	
Clc1ccc(-c2cnn(Cc3cc[nH]n3)c2)cc1 [Example 77, 4-(4-Chlorophenyl)-1-(1H-pyrazol-3-ylmethyl)pyrazole]	1.04 µM	16.9 µM	
Cc1cc(-c2cnn(Cc3cc[nH]n3)c2)ccc1F [Example 56, 4-(4-fluoro-3-methyl-phenyl)-1-(1H-pyrazol-3-ylmethyl)pyrazole]	0.0787 µM	93.8 µM	
Cc1cc(Cn2cc(-c3cccc(C(F)(F)F)c3)cn2)n(C)n1 [Example 48, 1,3-dimethyl-5-[[4-[3-(trifluoromethyl)phenyl]pyrazol-1-yl]methyl]pyrazole]	1.97 µM	37.4 µM	
Cc1cc(Cn2cc(-c3ccc(F)c(C(F)F)c3)cn2)n(C)n1 [Example 32, 5-[[4-[3-(Difluoromethyl)-4-fluoro-phenyl]pyrazol-1-yl]methyl]-1,3-dimethyl-pyrazole]	0.323 µM	38.6 µM	
Fc1ccc(-c2cnn(Cc3cc(Cn4ccc(-c5ccc(F)c(C(F)F)c5)n4)n[nH]3)c2)cc1C(F)F [Example 103, 3-(3-(difluoromethyl)-4-fluorophenyl)-1-((5-((4-(3-(difluoromethyl)-4-fluorophenyl)-1H-pyrazol-1-yl)methyl)-1H-pyrazol-3-yl)methyl)-1H-pyrazole]		> 10 µM	inhibition at 1 µM (rat NR1/NR2B receptor; [1]): 15.5%
COc1cc(F)ccc1-c1cnn(Cc2cc(C)nn2C)c1 [Example 68, 5-[[4-(4-fluoro-2-methoxy-phenyl)pyrazol-1-yl]methyl]-1,3-dimethyl-pyrazole Succinate]			inhibition at 10 µM (rat NR1/NR2B receptor; 10 μM test compound, [3H]-Ifenprodil binding, rat brain membranes): 26.3%; inhibition at 1 µM (rat NR1/NR2B receptor): 8.7%; IC50 (hERG receptor; [2]): 93.6 µM
CCn1cc(CCn2cc(-c3ccc(Cl)c(OC(F)F)c3)cn2)cn1 [Example 10, 4-[4-Chloro-3-(difluoromethoxy)phenyl]-1-[2-(1-ethylpyrazol-4-yl)ethyl]pyrazole]	0.25 µM	18.4 µM	
CCn1ccc(Cn2cc(-c3ccc(F)c(C(F)F)c3)cn2)n1 [Example 38, 3-[[4-[3-(Difluoromethyl)-4-fluoro-phenyl]pyrazol-1-yl]methyl]-1-ethyl-pyrazole]	0.443 µM	> 100 µM	
Cn1cc(Cn2cc(-c3ccc(F)c(OC(F)F)c3)cn2)cn1 [Example 19, 4-[3-(difluoromethoxy)-4-fluoro-phenyl]-1-[(1-methylpyrazol-4-yl)methyl]pyrazole]	0.202 µM	> 100 µM	
Cn1ccc(Cn2cc(-c3ccc(F)c(Cl)c3)cn2)n1 [Example 61, 3-[[4-(3-chloro-4-fluoro-phenyl)pyrazol-1-yl]methyl]-1-methyl-pyrazole Succinate]	1.38 µM	24.7 µM	
Cn1ccc(Cn2cc(-c3ccc(Cl)cc3Cl)cn2)n1 [Example 66, 3-[[4-(2,4-dichlorophenyl)pyrazol-1-yl]methyl]-1-methyl-pyrazole Succinate]	5.21 µM	8.86 µM	
Cn1ccc(Cn2cc(-c3cccc(OC(F)(F)F)c3)cn2)n1 [Example 23, 1-Methyl-3-[[4-[3-(trifluoromethoxy)phenyl]pyrazol-1-yl]methyl]pyrazole Succinate]	1.59 µM	9.24 µM	
Clc1ccc(-c2cnn(Cc3cn4ccccc4n3)c2)cc1 [Example 102, 2-((4-(4-chlorophenyl)-1H-pyrazol-1-yl)methyl)imidazo[1,2-a]pyridine]		10.2 µM	inhibition at 1 µM (rat NR1/NR2B receptor; [1]): 23.3%
Cc1cc(Cn2cc(-c3ccc(Cl)c(Cl)c3)cn2)n(C)n1 [Example 64, 5-[[4-(3,4-dichlorophenyl)pyrazol-1-yl]methyl]-1,3-dimethyl-pyrazole]	1.1 µM	14.4 µM	
CCn1cncc1Cn1cc(-c2ccc(Cl)cc2)cn1 [Example 98, 4-(4-chlorophenyl)-1-((1-ethyl-1H-imidazol-5-yl)methyl)-1H-pyrazole]	1.06 µM	3.55 µM	
CS(=O)(=O)c1cccc(-c2cnn(Cc3cc[nH]n3)c2)c1 [Example 70, 4-(3-methylsulfonylphenyl)-1-(1H-pyrazol-3-ylmethyl)pyrazole Succinate]	2.69 µM	> 100 µM	
Cc1cc(-c2cnn(Cc3ccn(C)n3)c2)ccc1Cl [Example 58, 3-[[4-(4-chloro-3-methyl-phenyl)pyrazol-1-yl]methyl]-1-methyl-pyrazole Succinate]	0.668 µM		IC50 (hERG receptor; [2]): 12.6 µM
Cc1n[nH]c(C)c1CCn1cc(-c2ccc(F)c(C(F)F)c2)cn1 [Example 36, 4-[2-[4-[3-(Difluoromethyl)-4-fluoro-phenyl]pyrazol-1-yl]ethyl]-3,5-dimethyl-1H-pyrazole]	0.424 µM	29.6 µM	
Fc1ccc(-c2cnn(CCc3cn[nH]c3)c2)cc1C(F)F [Example 37, 4-[3-(Difluoromethyl)-4-fluoro-phenyl]-1-[2-(1H-pyrazol-4-yl)ethyl]pyrazole]	2.06 µM	38.1 µM	
Cc1n[nH]c(C)c1Cn1cc(-c2ccc(F)c(C(F)F)c2)cn1 [Example 89, 4-[[4-(3-difluoromethyl-4-fluoro-phenyl)pyrazol-1-yl]methyl]-3,5-dimethyl-1H-pyrazole]	0.736 µM	88.2 µM	
Cn1ccc(Cn2cc(-c3ccc(Cl)c(Cl)c3)cn2)n1 [Example 63, 3-[[4-(3,4-dichlorophenyl)pyrazol-1-yl]methyl]-1-methyl-pyrazole]	0.612 µM		IC50 (hERG receptor; [2]): 10.8 µM
Cn1nccc1-n1cc(-c2ccc(F)c(Cl)c2)cn1 [Example 101, 4-(3-chloro-4-fluorophenyl)-2′-methyl-2′H-1,3′-bipyrazole]	5.6 µM	118 µM	
Cn1nccc1-n1cc(-c2ccc(Cl)c(Cl)c2)cn1 [Example 100, 4-(3,4-dichlorophenyl)-2′-methyl-2′H-1,3′-bipyrazole]	3.17 µM		IC50 (hERG receptor; [2]): 60.3 µM
Cc1cc(Cn2cc(-c3ccc(Cl)c(OC(F)F)c3)cn2)[nH]n1 [Example 13, 4-[4-Chloro-3-(difluoromethoxy)phenyl]-1-[(3-methyl-1H-pyrazol-5-yl)methyl]pyrazole]	0.0221 µM	37 µM	
